Test [1] relates to MOLP-8 cells. The test can be described thus: MOLP-8 cell proliferation assay (alamarBlue). Format: cell-based. Conditions: inhibition of cell proliferation, 120 hours, human multiple myeloma cell line. On the procedure:
In accordance with the invention, the ability of the substances to inhibit cell proliferation was determined Cell viability was determined by means of the alamarBlue® reagent (Invitrogen) in a Victor X3 Multilabel Reader (Perkin Elmer). The excitation wavelength was 530 nm and the emission wavelength […].
The MOLP-8 cells (DSMZ, ACC 569) were sown at a concentration of 4000 cells/well in 100 μl of growth medium (RPMI1640, 20% FCS) on 96-well microtitre plates.
After overnight incubation at 37° C., the fluorescence values were determined (CI values). Then the plates were treated with various substance dilutions (1E-5 M, 3E-6 M, 1E-6 M, 3E-7 M, 1E-7 M, 3E-8 M, 1E-8 M) and incubated at 37° C. over 96 hours (MOLM-13, B16F10 cells) or 120 hours (MOLP-8 cells). Subsequently, the fluorescence values were determined (CO values). For the data analysis, the CI values were subtracted from the CO values and the results were compared between cells which had been treated with various dilutions of the substance or only with buffer solution. The IC50 values (substance concentration needed for 50% inhibition of cell proliferation) were calculated therefrom.
MOLP-8 human multiple myeloma cell line
A general note: Alamar Blue is a resazurin reagent that responds to reducing activity.

Test [2] concerns the target T1, BRD4 Bromo Domain 2 [BRD4(2)] (Homo sapiens, UniProt O60885).
T1 construct: N-terminally His6-tagged BRD4(2) (amino acids 357-445); made in house; host or cells: E. coli
The test can be described thus: BRD4(2)/acetylated peptide H4 binding assay (TR-FRET). Conditions: inhibition of interaction between His6-tagged BRD4(2) (amino acids 357-445) and acetylated histone H4 peptide. An excerpt:
Protein-Protein Interaction Assay: BRD4/Acetylated Peptide H4 Binding Assay
2. Assay Description for BRD4 Bromo Domain 2 [BRD4(2)]
To assess the BRD4(2) binding strength of the substances described in this application, the ability thereof to inhibit the interaction between BRD4(2) and acetylated histone H4 in a dose-dependent manner was quantified.
For this purpose, a time-resolved fluorescence resonance energy transfer (TR-FRET) assay was used, which measures the binding between N-terminally His6-tagged BRD4(2) (amino acids 357-445) and a synthetic acetylated histone H4 (Ac-H4) peptide with sequence SGRGK(Ac)GGK(Ac)GLGK(Ac)GGAK(Ac)RHRKVLRDNGSGSK-biotin. The recombinant BRD4(2) protein produced in house according to Filippakopoulos et al., Cell, 2012, 149:214-231 was expressed in E. coli and purified by means of (Ni-NTA) affinity and (Sephadex G-75) size exclusion chromatography. The Ac-H4 peptide can be purchased, for example, from Biosyntan (Berlin, Germany).
In the assay, typically 11 different concentrations of each substance (0.1 nM, 0.33 nM, 1.1 nM, 3.8 nM, 13 nM, 44 nM, 0.15 μM, 0.51 μM, 1.7 μM, 5.9 μM and 20 μM) were analysed as duplicates on the same microtitre plate. For this purpose, 100-fold concentrated solutions in DMSO were prepared by serial dilutions (1:3.4) of a 2 mM stock solution into a clear, 384-well microtitre plate (Greiner Bio-One, Frickenhausen, Germany). From this, 50 nl were transferred into a black test plate (Greiner Bio-One, Frickenhausen, Germany). The test was started by the addition of 2 μl of a 2.5-fold concentrated BRD4(2) solution (final concentration typically 100 nM in the 5 μl of reaction volume) in aqueous assay buffer [50 mM HEPES pH 7.5, 50 mM sodium chloride (NaCl); 50 mM potassium fluoride (KF); 0.25 mM CHAPS and 0.05% serum albumin (BSA)] to the substances in the test plate. This was followed by a 10-minute incubation step at 22° C. for the pre-equilibration of putative complexes between BRD4(2) and the substances.
The mixture was then incubated in the dark at 22° C. for one hour and then at 4° C. for at least 3 hours and for no longer than overnight. The formation of BRD4(2)/Ac-H4 complexes was determined by the measurement of the resonance energy transfer from the streptavidin-Eu chelate to the anti-6His-XL665 antibody present in the reaction. For this purpose, the fluorescence emission was measured at 620 nm and 665 nm after excitation at 330-350 nm in a TR-FRET measuring instrument, for example a Rubystar or Pherastar (both from BMG Lab Technologies, Offenburg, Germany) or a Viewlux (Perkin-Elmer). The ratio of the emissions at 665 nm and at 622 nm was taken as an indicator of the amount of BRD4(2)/Ac-H4 complexes formed.
The data (ratios) obtained were normalized, with 0% inhibition corresponding to the mean from the measurements for a set of controls (typically 32 data points) in which all the reagents were present. In these, in place of test substances, 50 nl of DMSO (100%) were used Inhibition of 100% corresponded to the mean from the measurements for a set of controls (typically 32 data points) in which all the reagents except BRD4(2) were present. The IC50 was determined by regression analysis based on a 4-parameter equation (minimum, maximum, IC50, Hill; Y=max+(min−max)/(1+(X/IC50)Hill)).
On the technique in general: Time-resolved FRET reads energy transfer from a long-lived donor to a nearby acceptor.

One may read the IC50 as the point on the concentration scale where inhibition reaches its midpoint. A low value points to greater potency.

For the compound `COc1ccc(CN2c3cc(Nc4ccc(C(=O)NCC5COC5)cc4)ccc3N(C)C(=O)[C@H]2C)cc1` [Example 19, 4-{[(3R)-4-(4-methoxybenzyl)-1,3-dimethyl-2-oxo-1,2,3,4-tetrahydroquinoxalin-6-yl]amino}-N-(oxetan-3-ylmethyl)benzamide], the IC50 in test [1] was 124 nM; in test [2], 110 nM.

Turning to `COc1ccc(CN2c3cc(Nc4ccc(C(=O)N5CC6(COC6)C5)cc4)ccc3N(C)C(=O)[C@H]2C)cc1` [Example 20, (3R)-4-(4-methoxybenzyl)-1,3-dimethyl-6-{[4-(2-oxa-6-azaspiro[3.3]hept-6-ylcarbonyl)phenyl]amino}-3,4-dihydroquinoxalin-2(1H)-one], the IC50 was determined as 120 nM in test [1] and 43 nM in test [2].

Turning to `COc1ccc(CN2c3cc(Nc4ccc(C(=O)NCCN5CCN(C)CC5)cc4)ccc3N(C)C(=O)[C@H]2C)cc1` [Example 21, 4-{[(3R)-4-(4-methoxybenzyl)-1,3-dimethyl-2-oxo-1,2,3,4-tetrahydroquinoxalin-6-yl]amino}-N-[2-(4-methylpiperazin-1-yl)ethyl]benzamide], the IC50 was found to be 69 nM in test [1] and 54 nM in test [2].

`COc1ccc(CN2c3cc(Nc4ccc(C(=O)N5CCN(C(C)C)CC5)cc4)ccc3N(C)C(=O)[C@H]2C)cc1` [Example 22, (3R)-4-(4-methoxybenzyl)-1,3-dimethyl-6-[(4-{[4-(propan-2-yl)piperazin-1-yl]carbonyl}phenyl)amino]-3,4-dihydroquinoxalin-2(1H)-one]: the 50% inhibitory concentration (IC50) in test [1] was 93 nM; in test [2], 86 nM.

Take `C[C@@H]1C(=O)N(C)c2ccc(Nc3ccc(C(=O)NC4CCN(C)CC4)cc3)cc2N1C1CCCCCC1` [Example 23, 4-{[(3R)-4-cycloheptyl-1,3-dimethyl-2-oxo-1,2,3,4-tetrahydroquinoxalin-6-yl]amino}-N-(1-methylpiperidin-4-yl)benzamide]: the figures for the IC50 in test [1] and in test [2] were 1020 nM and 152 nM, respectively.

For the compound `C[C@@H]1C(=O)N(C)c2ccc(Nc3ccc(C(=O)N4CCOCC4)cc3)cc2N1C1CCCCCC1` [Example 24, (3R)-4-cycloheptyl-1,3-dimethyl-6-{[4-(morpholin-4-ylcarbonyl)phenyl]amino}-3,4-dihydroquinoxalin-2(1H)-one], the concentration for half-maximal inhibition (IC50) in test [1] was 662 nM; in test [2] it was 102 nM.

For the compound `C[C@@H]1C(=O)N(C)c2ccc(Nc3ccc(C(=O)NCC4COC4)cc3)cc2N1C1CCCCCC1` [Example 25, 4-{[(3R)-4-cycloheptyl-1,3-dimethyl-2-oxo-1,2,3,4-tetrahydroquinoxalin-6-yl]amino}-N-(oxetan-3-ylmethyl)benzamide], the half-inhibitory concentration (IC50) in test [1] is 1360 nM; in test [2], 357 nM.

For the compound `C[C@@H]1C(=O)N(C)c2ccc(Nc3ccc(C(=O)NC4CCN(C)CC4)cc3)cc2N1C1CCOCC1` [Example 26, 4-{[(3R)-1,3-dimethyl-2-oxo-4-(tetrahydro-2H-pyran-4-yl)-1,2,3,4-tetrahydroquinoxalin-6-yl]amino}-N-(1-methylpiperidin-4-yl)benzamide], the results for the half-maximal inhibitory concentration (IC50) in test [1] and in test [2] were 1030 nM and 391 nM, respectively.

With `C[C@@H]1C(=O)N(C)c2ccc(Nc3ccc(C(=O)N4CCOCC4)cc3)cc2N1C1CCOCC1` [Example 27, (3R)-1,3-dimethyl-6-{[4-(morpholin-4-ylcarbonyl)phenyl]amino}-4-(tetrahydro-2H-pyran-4-yl)-3,4-dihydroquinoxalin-2(1H)-one], the concentration for half-maximal inhibition (IC50) in test [1] came to 1130 nM; in test [2], 419 nM.

As to `C[C@@H]1C(=O)N(C)c2ccc(Nc3ccc(C(=O)NCC4COC4)cc3)cc2N1C1CCOCC1` [Example 28, 4-{[(3R)-1,3-dimethyl-2-oxo-4-(tetrahydro-2H-pyran-4-yl)-1,2,3,4-tetrahydroquinoxalin-6-yl]amino}-N-(oxetan-3-ylmethyl)benzamide], the half-inhibitory concentration (IC50) in test [1] came out at 1800 nM; in test [2], 513 nM.

Turning to `C[C@@H]1C(=O)N(C)c2ccc(Nc3ccc(C(=O)N4CC5(COC5)C4)cc3)cc2N1C1CCOCC1` [Example 29], the half-maximal inhibitory concentration (IC50) in test [1] is 1120 nM; in test [2], 158 nM.

As for `C[C@@H]1C(=O)N(C)c2ccc(Nc3ccc(C(=O)NCCN4CCN(C)CC4)cc3)cc2N1C1CCOCC1` [Example 30, 4-{[(3R)-1,3-dimethyl-2-oxo-4-(tetrahydro-2H-pyran-4-yl)-1,2,3,4-tetrahydroquinoxalin-6-yl]amino}-N-[2-(4-methylpiperazin-1-yl)ethyl]benzamide], the IC50 was 869 nM in test [1] and 351 nM in test [2].

Turning to `C[C@@H]1C(=O)N(C)c2ccc(Nc3ccc(C(=O)N4CC5(CCS5(=O)=O)C4)cc3)cc2N1C1CCOCC1` [Example 31, (3R)-6-({4-[(1,1-dioxido-1-thia-6-azaspiro[3.3]hept-6-yl)carbonyl]phenyl}amino)-1,3-dimethyl-4-(tetrahydro-2H-pyran-4-yl)-3,4-dihydroquinoxalin-2(1H)-one], the figures for the IC50 in test [1] and in test [2] were 1250 nM and 126 nM, respectively.

For the compound `CC(=O)N1CCC(NC(=O)c2ccc(Nc3ccc4c(c3)N(C3CCOCC3)[C@H](C)C(=O)N4C)cc2)CC1` [Example 32, N-(1-acetylpiperidin-4-yl)-4-{[(3R)-1,3-dimethyl-2-oxo-4-(tetrahydro-2H-pyran-4-yl)-1,2,3,4-tetrahydroquinoxalin-6-yl]amino}benzamide], the IC50 in test [1] worked out at 2580 nM; in test [2], 482 nM.

As to `CC(C)N1CCN(C(=O)c2ccc(Nc3ccc4c(c3)N(C3CCOCC3)[C@H](C)C(=O)N4C)cc2)CC1` [Example 33], the half-inhibitory concentration (IC50) was 509 nM in test [1] and 383 nM in test [2].

On to `C[C@@H]1C(=O)N(C)c2ccc(Nc3ccc(C(=O)NC4CN(C)C4)cc3)cc2N1C1CCOCC1` [Example 34, 4-{[(3R)-1,3-dimethyl-2-oxo-4-(tetrahydro-2H-pyran-4-yl)-1,2,3,4-tetrahydroquinoxalin-6-yl]amino}-N-(1-methylazetidin-3-yl)benzamide], for which the half-inhibitory concentration (IC50) in test [1] is 1540 nM; in test [2] it was 238 nM.

Consider `C[C@@H]1C(=O)N(C)c2ccc(Nc3ccc(C(=O)NC4CC4)cc3)cc2N1C1CCOCC1` [Example 35, N-cyclopropyl-4-{[(3R)-1,3-dimethyl-2-oxo-4-(tetrahydro-2H-pyran-4-yl)-1,2,3,4-tetrahydroquinoxalin-6-yl]amino}benzamide], for which the IC50 stood at 1390 nM in test [1] and 217 nM in test [2].

As to `COc1cc(C(=O)NC2CCN(C)CC2)ccc1Nc1ccc2c(c1)N(C1CCOCC1)[C@H](C)C(=O)N2C` [Example 36, 4-{[(3R)-1,3-dimethyl-2-oxo-4-(tetrahydro-2H-pyran-4-yl)-1,2,3,4-tetrahydroquinoxalin-6-yl]amino}-3-methoxy-N-(1-methylpiperidin-4-yl)benzamide], the IC50 in test [1] was 675 nM; in test [2], 441 nM.

The values above are taken from patent publication US20150344444A1, “BET-PROTEIN-INHIBITING DIHYDROXYQUINOXALINONES” (BAYER PHARMA AKTIENGESELLSCHAFT, priority 2012, published 2015).
